Source: PMC11925246 (Journal of Bacteriology, 2025)
Several values for one entry are separate records, joined by “and”; a condition that tells them apart may be missing. Identical values can stand only once. Like-named read-outs stand apart in the source and are kept apart here.

Assays:
hrpB expression [1] = type: cell-based, R. pseudosolanacearum; details: hrpB-lacZ resting cells, 25°C; for Induction of hrpB expression by organic acids: organic acid 0.1 mM, 20 h (Fig. 5); for Induction of hrpB expression by sugars: sugar 0.01%, 20 h (Fig. 6)
[2] = target: periplasmic domain of Rsc1598 (Ralstonia pseudosolanacearum, UniProt Q8XZ08); assay: biochemical; type: binding, R. pseudosolanacearum OE1-1
periplasmic domain of Rsc1598, sequence (Q8XZ08 99-319 limits assumed): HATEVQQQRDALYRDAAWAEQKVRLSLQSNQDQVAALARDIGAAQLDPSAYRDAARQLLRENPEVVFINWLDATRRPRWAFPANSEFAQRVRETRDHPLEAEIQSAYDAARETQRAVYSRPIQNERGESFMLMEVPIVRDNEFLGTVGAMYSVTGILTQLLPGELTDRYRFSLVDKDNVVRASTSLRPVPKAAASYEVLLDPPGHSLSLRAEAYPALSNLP

hrpB expression [3] = type: cell-based, R. pseudosolanacearum; details: malic acid 0.5 mM or sucrose 0.01%, quarter-strength M63 with 0.25% glucose, 28 °C, 5 h (Fig. S4)

For O=C(O)[C@@H]1CCC(O)=N1 [L-pyroglutamic acid], the “Induction of hrpB expression by organic acids” value (“Induction … by organic acids” below) (hrpB expression [1]) was “induced high levels of hrpB expression” and the Kd ([2]; Kd) was 41 µM and 43.2 µM and 194 µM.
For OC[C@H]1OC(O)[C@H](O)[C@@H](O)[C@@H]1O (some centres unmarked) [glucose], the “Induction of hrpB expression by sugars” value (hrpB expression [1]) was “induced hrpB expression”.
OC[C@H]1O[C@@](CO)(O[C@H]2O[C@H](CO)[C@@H](O)[C@H](O)[C@H]2O)[C@@H](O)[C@@H]1O [sucrose] was tested, and the “Induction of hrpB expression by sugars” value (hrpB expression [1]) was “the most effective sugar” and the “Induction of hrpB-lacZ expression in growing cells” value (hrpB expression [3]) was “minimal induction”.
Compound O=C(O)CC(O)(CC(=O)O)C(=O)O [Citric acid, citric acid] has a Kd ([2]; Kd, Average of titrations, 25°C, pH 7.6) of 155 ± 80.7 µM, a Kd ([2]; Kd, ITC single titration, ligand 4 mM, 25°C, 50 mM sodium phosphate buffer pH 7.6, protein 40 µM) of 137 µM and a Kd ([2]; Kd, ITC single titration, ligand 5 mM, 25°C, 50 mM sodium phosphate buffer pH 7.6, protein 40 µM) of 84.5 µM. For the same compound, the Kd ([2]; Kd, ITC single titration, ligand 6 mM, 25°C, 50 mM sodium phosphate buffer pH 7.6, protein 40 µM) was 243 µM.
In the case of O=C(O)/C=C/C(=O)O [Fumaric acid, fumaric acid], the Kd ([2]; Kd) is reported as 47 µM and 56.3 µM and the Kd ([2]; pH 7.6) is reported as “smaller than that of malic acid”.
O=CO [Formic acid, formic acid] showed a Kd ([2]; ITC single titration, ligand 5 mM, 25°C, 50 mM sodium phosphate buffer pH 7.6, protein 40 µM, read-out: Kd) of 71.5 µM and a Kd ([2]; ITC single titration, ligand 6 mM, 25°C, 50 mM sodium phosphate buffer pH 7.6, protein 40 µM, read-out: Kd) of 231 µM.
For O=C(O)CCC(=O)O [Succinic acid, succinic acid], the “Induction … by organic acids” value (hrpB expression [1]) was “induced high levels of hrpB expression” and the Kd ([2]; Kd) was 29.5 µM and 190 µM.
For O=C(CO)[C@@H](O)[C@H](O)[C@H](O)CO [fructose], the “Induction of hrpB expression by sugars” value (hrpB expression [1]) was “induced hrpB expression”.
O=C(O)C(=O)O [Oxalic acid, oxalic acid] was tested, and the Kd ([2]; Kd) was 229 µM and 151 µM.
With O=C(O)CC(O)C(=O)O (centres unmarked) [Malic acid, malic acid] the “Induction … by organic acids” value (hrpB expression [1]) was “induced high levels of hrpB expression”, the Kd ([2]; Kd) was 68.4 µM and 64.3 µM and 89 µM and 65 µM and the “Induction of hrpB-lacZ expression in growing cells” value (hrpB expression [3]) was “induced hrpB expression”.
